According to patent publication US20030176431A1 (priority 1997, published 2003):
Like-named read-outs stand apart in the source and are kept apart here.

Tests used:
[1] = test system: female Swiss Webster mice; details: mouse, in vivo, po
Description: (§1) Doses above this level are overtly toxic or fatal to the animal.
(§2) To assess the safety of compounds of the invention, the methyl cellulose formulations of compounds of the invention were administered to laboratory mice. A single dose of each compound in a 0.5 mL volume was administered by oral gavage to groups of test animals, each consisting of five female Swiss Webster mice 8 to 9 weeks of age and weighing 25 to 30 g. The MTD was determined by administering increasing doses of compound and assessing animal survival over a 7 day period.

[2] = test system: Coxsackie B3 virus; experiment: microbe, parasite or virus in culture; type: cell-based
[3] = test system: normal cells; details: highest concentration giving optical density ≧75% of control, MTT, 68 hours
Description: This assay measures cell viability, and therefore cytotoxicity, by quantitatively detecting the in situ reduction of 3-(4,5-dimethylthiazol-2-yl)-2,5-diphenyltetrazolium bromide (MTT) by viable cells. Cells are seeded in 96-well plates in DMEM containing 2% horse serum at a density of 4×10^3 cells per well. After incubation for 4 hours at 37° C. and 5% CO2, 2-fold serial dilutions of compound in 1% DMSO (or solvent alone) are added to quadruplicate wells and the plates are incubated for an additional 68 hours at 37° C. and 5% CO2, which is equivalent to 3 to 4 cell doublings. The culture medium is removed, and the cells are treated with 1 mg/ml of MTT in phosphate-buffered saline, pH 7.2 for 4 hours at 37° C. and 5% CO2. After removal of the unreduced MTT, the reduced blue formazan crystals produced by the viable cells are solubilized by the addition of 0.04N HCl in isopropanol. The absorbance at 570 nm (A570) of each well is read using a suitable microplate reader. Cell viability is expressed as the percentage of optical density for compound-treated cells relative to the optical density of solvent alone-treated control wells. The highest compound concentration resulting in an optical density of ≧75% of the control is represented as the cellular cytotoxicity value (CC75).

[4] = test system: female Swiss Webster mice; experiment: Animal safety study: maximum tolerated dose after single oral dose; details: mice; for MTD: single oral dose, survival over 7 days
Description: as §1, §2

[5] = test system: Respiratory syncytial virus; experiment: microbe, parasite or virus in culture; type: cell-based; details: read-out: IC50 Respiratory syncytial virus
[6] = test system: Herpes simplex virus type 2; experiment: microbe, parasite or virus in culture; type: cell-based
[7] = test system: BVDV (strain NADL); experiment: Cell culture assay for inhibition of BVDV replication (cytopathic effect, crystal violet); type: cell-based, bovine viral diarrhea virus
Source text: The replication of many viruses may be quantitatively assessed in the laboratory in various cell or tissue culture systems. Such in vitro culture methodologies are available and useable by those trained in the art for the propagation and quantitative measurement of the replication of several pestiviruses and flaviviruses. The following procedure was used for the in vitro quantitative measure of BVDV replication.
Using the procedure described in this example, compounds of the invention were evaluated for their ability to inhibit the replication of the virus in cell culture. By adding compounds at various concentrations to the culture medium, a dose response effect of the compound on virus replication can be determined. A useful quantitative measure of the inhibition of BVDV replication in this assay is the concentration of the compound at which virus replication in cell culture is inhibited by 50% in comparison to that observed in the absence of the compound (50% Inhibitory Concentration, IC50).
Anti-pestivirus compounds of the invention were screened for antiviral activity against BVDV on Madin Darby bovine kidney (MDBK) cells in a cell culture assay. Standard 96-well culture plates were seeded with 1 to 2×10^4 MDBK cells in 200 uL of Dulbeccos-modified Eagle's medium (DMEM) supplemented with 5% horse serum so as to obtain a monolayer of cells at 60% confluence. Six hours later, the medium was removed and the cell monolayers in each well were infected with 150 uL solution of BVDV (strain NADL) (M. S. Collett et al., Virology 165:191-199 (1988)) in DMEM supplemented with 2% horse serum previously titrated to yield 85-100% destruction (cytopathic effect) of the cell monolayer 36-40 hours after infection.
To determine the IC50 values of compounds tested in this experiment, ten serial 2-fold dilutions of test compounds were prepared in DMSO solvent at a compound concentration 200 times that desired for the highest final test concentration. The test compound-DMSO solutions were diluted 50-fold into DMEM containing 2% horse serum. Fifty uL of this dilution was added to the 150 uL volume present in the wells of the virus-infected plate, yielding a final DMSO concentration in each well of 0.5%. Virus control (VC; no test compound) and cell culture control (CC; no virus and no test compound) wells were included on each 96-well plate. Assay points were conducted in replicate, usually in quadruplicate. Plates were then incubated at 37° C. in a humidified atmosphere containing 2.5% carbon dioxide for 36-40 hours. At the end of the incubation period, 100 uL of a 5% solution of glutaraldehyde in water was added to each well and the wells were incubated at room temperature for 1 hour. The fixative was removed, and the cells were stained with a 0.1% solution of crystal violet in water for 15-30 minutes. After rinsing and drying the plates, the optical density of the wells was measured at 570 nm (OD570).
To determine IC50 values for the test compounds, the mean value of the OD570 readings of the virus control wells (VC) on a plate was subtracted from the OD570 readings of all wells on that plate. The IC50 values were then calculated according to the following formula: [formula]
where Y represents the mean OD570 reading of the cell control wells (CC) divided by 2; B represents the mean OD570 reading of wells of the compound dilution nearest to and below Y; A represents the mean OD570 reading of wells of the compound dilution nearest to and above Y; L represents the compound concentration at B; and H represents the compound concentration at A.

[8] = test system: Influenza A virus; experiment: microbe, parasite or virus in culture; type: cell-based; details: read-out: IC50 Influenza A virus
[9] = mouse, in vivo, po
[10] = test system: BVDV-infected MDBK cells; type: cell-based, bovine viral diarrhea virus; details: read-out: IC50 evaluated with the spiked mouse reference serum
[11] = Animal safety study: maximum tolerated dose after single oral dose; details: female, Swiss Webster, mouse, in vivo, po
Description: as §1, §2

[12] = single oral gavage dose 21 mg/kg
[13] = single oral gavage dose 71 mg/kg
[14] = single oral gavage dose 214 mg/kg
[15] = single oral gavage dose 710 mg/kg
[16] = Bovine viral diarrhea virus isolates and strains, BVDV strain NADL on MDBK cells, 36-40 hours, read-out: IC50
[17] = Enterovirus B, B3, read-out: IC50 Coxsackie B3 virus
[18] = human respiratory syncytial virus
[19] = Human alphaherpesvirus 2, read-out: IC50 Herpes simplex virus type 2
[20] = Bovine viral diarrhea virus isolates and strains, BVDV, read-out: IC50 determined in cell culture
[21] = Bovine viral diarrhea virus isolates and strains, Table 3 specificity panel, BVDV, read-out: IC50 BVDV
[22] = Bovine viral diarrhea virus isolates and strains, antiviral IC50 against BVDV, Table 4, read-out: IC50

## CCCN(CCC)CCSc1nnc2c(n1)[nH]c1ccccc12 [Example 1, 3-[((2-dipropylamino)ethyl)thio]-5H-1,2,4-triazino[5,6-b]indole]
[1]
  MTD: greater than or equal to the highest dose tested
[2]; read-out: IC50 Coxsackie B3 virus
  IC50: > 50 µM
[3]
  CC75: 2 µM
[4]
  MTD: ≧710 mg/kg
[4]; [12]
  #Survivors (alive at Day 7): 5/5
[4]; [13]
  #Survivors (alive at Day 7): 5/5
[4]; [14]
  #Survivors (alive at Day 7): 5/5
[4]; [15]
  #Survivors (alive at Day 7): 5/5
[5]
  IC50: > 50 µM
[6]; read-out: IC50 Herpes simplex virus type 2
  IC50: > 50 µM
[7]; read-out: IC50
  IC50: 6 nM
[7]; read-out: IC50 BVDV
  IC50: 6 nM
[7]; read-out: IC50 determined in cell culture
  IC50: 6 nM
[8]
  IC50: > 50 µM
[9]; 21 mg/kg
  Concentration Of Drug Measured In Serum Post Drug Administration 30 Min.: 0.1 µM
  Concentration Of Drug Measured In Serum Post Drug Administration 90 Min.: 0.07 µM
[9]; 214 mg/kg
  Concentration Of Drug Measured In Serum Post Drug Administration 30 Min.: 1.1 µM
  Concentration Of Drug Measured In Serum Post Drug Administration 90 Min.: 0.6 µM
[10]
  IC50: 3.5 nM

## CCN(CC)CC(C)Sc1nnc2c(n1)[nH]c1ccccc12 (stereo not shown) [Example 2]
[7]; [16]
  IC50: 300 nM

## CC(C)N(CCSc1nnc2c(n1)[nH]c1ccccc12)C(C)C [Example 3]
[7]; [16]
  IC50: 3100 nM

## CC(CN(C)C)Sc1nnc2c(n1)[nH]c1ccccc12 (stereo not shown) [Example 4]
[7]; [16]
  IC50: 3700 nM

## CN(C)CCSc1nnc2c(n1)[nH]c1ccccc12 [Example 5]
[7]; [16]
  IC50: 5500 nM

## c1ccc2c(c1)[nH]c1nc(SCCN3CCCC3)nnc12 [Example 6]
[7]; [16]
  IC50: 500 nM

## c1ccc2c(c1)[nH]c1nc(SCCN3CCCCC3)nnc12 [Example 7]
[2]; [17]
  IC50: > 50 µM
[3]
  CC75: 12.5 µM
[4]
  MTD: greater than or equal to the highest dose tested
[4]; [12]
  #Survivors (alive at Day 7): 5/5
[4]; [13]
  #Survivors (alive at Day 7): 5/5
[4]; [14]
  #Survivors (alive at Day 7): 5/5
[4]; [15]
  #Survivors (alive at Day 7): 5/5
[11]
  MTD at 7 day: ≥ 710 mg/kg
[5]; [18]
  IC50: > 50 µM
[6]; [19]
  IC50: > 50 µM
[7]; [16]
  IC50: 60 nM
[7]; [20]
  IC50: 60 nM
[7]; [21]
  IC50: 60 nM
[7]; [22]
  IC50: 60 nM
[8]; Influenza A virus
  IC50: > 50 µM
[9]; Swiss Webster, 21 mg/kg
  Concentration Of Drug Measured In Serum Post Drug Administration 30 Min.: <1.5 µM
  Concentration Of Drug Measured In Serum Post Drug Administration 90 Min.: <1.5 µM
[9]; Swiss Webster, 214 mg/kg
  Concentration Of Drug Measured In Serum Post Drug Administration 30 Min.: 46.0 µM
  Concentration Of Drug Measured In Serum Post Drug Administration 90 Min.: 36.2 µM

## c1ccc2c(c1)[nH]c1nc(SCCCN3CCCCC3)nnc12 [Example 8]
[7]; [16]
  IC50: 4400 nM

## c1ccc2c(c1)[nH]c1nc(SCCN3CCCCCC3)nnc12 [Example 9]
[2]; [17]
  IC50: > 50 µM
[3]
  CC75: 25 µM
[4]; [12]
  #Survivors (alive at Day 7): 5/5
[4]; [13]
  #Survivors (alive at Day 7): 5/5
[4]; [15]
  #Survivors (alive at Day 7): 0/5
[11]
  MTD at 7 day: 214 mg/kg
[5]; [18]
  IC50: > 50 µM
[6]; [19]
  IC50: > 50 µM
[7]; [16]
  IC50: 30 nM
[7]; [20]
  IC50: 30 nM
[7]; [21]
  IC50: 30 nM
[7]; [22]
  IC50: 30 nM
[8]; Influenza A virus
  IC50: > 50 µM
[9]; Swiss Webster, 21 mg/kg
  Concentration Of Drug Measured In Serum Post Drug Administration 30 Min.: 0.7 µM
  Concentration Of Drug Measured In Serum Post Drug Administration 90 Min.: <0.2 µM
[9]; Swiss Webster, 214 mg/kg
  Concentration Of Drug Measured In Serum Post Drug Administration 30 Min.: 19.6 µM
  Concentration Of Drug Measured In Serum Post Drug Administration 90 Min.: 8.5 µM

## c1ccc2c(c1)[nH]c1nc(SCc3ccncc3)nnc12 [Example 10]
[7]; [16]
  IC50: 4000 nM

## c1ccc2c(c1)[nH]c1nc(SCCN3CCOCC3)nnc12 [Example 11]
[7]; [16]
  IC50: 1200 nM

## CCCCN(CCCC)CCSc1nnc2c(n1)[nH]c1ccccc12 [Example 12]
[7]; [16]
  IC50: 10 nM

## COc1cc2oc(=O)cc(CSc3nnc4c(n3)[nH]c3ccccc34)c2cc1OC [Example 13]
[7]; [16]
  IC50: 1700 nM

## N#CC1CCN(CCSc2nnc3c(n2)[nH]c2ccccc23)CC1 [Example 14]
[7]; [16]
  IC50: 1800 nM

## CCC1CCN(CCSc2nnc3c(n2)[nH]c2ccccc23)CC1 [Example 15]
[7]; [16]
  IC50: > 3000 nM

## c1ccc2c(c1)OCC(CSc1nnc3c(n1)[nH]c1ccccc13)O2 (stereo not shown) [Example 16]
[7]; [16]
  IC50: 2500 nM

## Clc1cc(CSc2nnc3c(n2)[nH]c2ccccc23)cc(Cl)n1 [Example 17]
[7]; [16]
  IC50: 1400 nM

## c1ccc2c(c1)[nH]c1nc(SCCCCOC3CCCCO3)nnc12 (stereo not shown) [Example 18]
[7]; [16]
  IC50: > 3000 nM

## CCCN(CCC)CCSc1nnc2c(n1)[nH]c1ccccc12 [Example 19]
[7]; [16]
  IC50: 2 nM

## Cc1ccc2[nH]c3nc(SCCN4CCCCCC4)nnc3c2c1 [Example 20]
[7]; [16]
  IC50: 7 nM

## Brc1ccc2[nH]c3nc(SCCN4CCCCC4)nnc3c2c1 [Example 21]
[7]; [16]
  IC50: 36 nM

## Brc1ccc2[nH]c3nc(SCCN4CCCCCC4)nnc3c2c1 [Example 22]
[7]; [16]
  IC50: 42 nM

## Fc1ccc2[nH]c3nc(SCCN4CCCCCC4)nnc3c2c1 [Example 23]
[7]; [16]
  IC50: 14 nM

## Cc1ccc2[nH]c3nc(SCCN4CCCCC4)nnc3c2c1 [Example 24]
[7]; [16]
  IC50: 13 nM

## COc1ccc2[nH]c3nc(SCCN4CCOCC4)nnc3c2c1 [Example 25]
[7]; [16]
  IC50: 2000 nM

## CCCN(CCC)CCSc1nnc2c(n1)[nH]c1ccc(N)cc12 [Example 26]
[7]; [16]
  IC50: 10 nM

## Fc1ccc2[nH]c3nc(SCCN4CCCCC4)nnc3c2c1 [Example 27]
[7]; [16]
  IC50: 21 nM
